Assay results reported in US9919998B2, “Antibacterial agents: Nα-aroyl-N-aryl-phenylalaninamides” (priority 2014, dated 2018).
Converted amounts (≈) assume the structure as drawn. Where two headings read alike, the source gives them in different places.

Columns and labels:
[1] = system: Mycobacterium tuberculosis H37Rv; test: Microplate Alamar Blue assay (MABA) MIC, M. tuberculosis; format: cell-based; settings: read-out: MIC Mycobacterium tuberculosis H37Rv
Description: (§1) Minimal inhibitory concentrations (MICs) in Mycobacterium tuberculosis H37Rv and Mycobacterium avium ATCC 25291 were quantified using microplate Alamar Blue assays as described (MABA; [Collins, L. & Franzblau, S. (1997) Microplate Alamar Blue assay versus BACTEC 460 system for high-throughput screening of compounds against Mycobacterium tuberculosis and Mycobacterium avium. Antimicrob. Agents Chemother. 41, 1004-1009]).

[2] = system: Mycobacterium avium ATCC 25291; test: Microplate Alamar Blue assay (MABA) MIC, M. avium; format: cell-based; settings: ATCC25291, M. avium ATCC 25291
Description: as §1

[3] = system: Mycobacterium smegmatis ATCC 19420; test: Broth microdilution MIC, M. smegmatis; format: cell-based; settings: Mycolicibacterium smegmatis
Description: (§2) MICs in Mycobacterium smegmatis ATCC 19420 and Mycobacterium smegmatis ATCC 19420 derivatives were quantified using broth microdilution assays as described [Clinical and Laboratory Standards Institute (CLSI/NCCLS) (2009) Methods for Dilution Antimicrobial Susceptibility Tests for Bacteria That Grow Aerobically; Approved Standard, Eighth Edition. CLIS Document M07-A8 (CLIS, Wayne Pa.)].

[4] = system: rifampin-resistant mutants, derivatives of M. smegmatis ATCC19420; test: MICs in rifampin-resistant mutants (cross-resistance levels); format: cell-based, Mycobacterium smegmatis
Description: as §2

[5] = system: Vero E6 ATCC CRL1586 cells; test: Mammalian-cell cytotoxicity, minimal cytotoxic concentration (CellTiter96); format: cell-based
Description: Minimal cytotoxic concentrations (MCCs) against mammalian cells in culture were determined using Vero E6 ATCC CRL1586 cells and the CellTiter96 assay kit (Promega, Inc.). […]

[6] = biological target: Mycobacterium tuberculosis RNA polymerase (Mycobacterium tuberculosis, UniProt P9WGY7+P9WGY9); test: Run-off transcription assay with Mycobacterium tuberculosis RNA polymerase (radiochemical); format: biochemical
Description: Run-off transcription assays with Mycobacterium tuberculosis RNA polymerase were performed using reaction mixtures containing (10 μl): 0-100 μM test compound, 75 nM Mycobacterium tuberculosis RNA polymerase core enzyme, 300 nM Mycobacterium tuberculosis σ^A, 20 nM 130 bp DNA fragment containing positions −100 to −1 of the bacteriophage […] N25 promoter followed by positions +1 to +30 of the lacUV5-15 promoter of [Mukhopadhyay, J., Kapanidis, A., Mekler, V., Kortkhonjia, E., Ebright, Y., Ebright, R. (2001) Cell 106, 453-463], 25 nM [alpha-^32P]UTP (600 Bq/pmol) for an initial 2 min at 37° C. and 100 μM [alpha-^32P]UTP (6 Bq/pmol) for a subsequent 5 min at 37° C., 100 μM ATP, 100 μM GTP, 100 μM UTP, 100 μM CTP, 40 mM Tris-HCl, pH 8.0, 80 mM NaCl, 5 mM MgCl2, 2.5 mM DTT, and 12.7% glycerol. Reactions were terminated by addition of […] 80% formamide, 10 mM EDTA, 0.04% bromophenol blue, and 0.04% xylene cyanol, followed by heating for 5 min at 90° C. Reaction products were resolved by 15% urea-PAGE, and quantified using a storage-phosphor scanner.

[7] = ATCC19420, M. smegmatis ATCC 19420, read-out: MIC Mycobacterium smegmatis ATCC 19420
[8] = IC50 Mycobacterium tuberculosis RNA polymerase
[9] = radiochemical transcription assays, M. tuberculosis RNA polymerase, read-out: Inhibition of mycobacterial RNA polymerase (IC50s)
[10] = ATCC19420, broth microdilution assays, M. smegmatis ATCC19420, read-out: Inhibition of mycobacterial growth in culture (MICs)

Chain of Mycobacterium tuberculosis RNA polymerase (P9WGZ1 whole entry, the tested form may be a part): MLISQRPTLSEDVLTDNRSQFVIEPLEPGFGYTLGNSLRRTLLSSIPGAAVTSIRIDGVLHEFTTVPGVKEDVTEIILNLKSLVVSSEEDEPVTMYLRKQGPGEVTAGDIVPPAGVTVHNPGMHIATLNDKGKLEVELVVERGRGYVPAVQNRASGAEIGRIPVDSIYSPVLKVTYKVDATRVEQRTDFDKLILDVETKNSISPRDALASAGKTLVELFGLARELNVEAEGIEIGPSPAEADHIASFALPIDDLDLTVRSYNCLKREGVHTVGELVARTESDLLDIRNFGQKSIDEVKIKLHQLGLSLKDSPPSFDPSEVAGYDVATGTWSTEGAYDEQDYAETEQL
Chain of Mycobacterium tuberculosis RNA polymerase (P9WGY5 whole entry, further chain, the tested form may be a part): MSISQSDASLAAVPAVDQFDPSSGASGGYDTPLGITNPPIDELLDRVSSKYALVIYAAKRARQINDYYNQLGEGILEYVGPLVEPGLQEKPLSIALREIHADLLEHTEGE
Chain of Mycobacterium tuberculosis RNA polymerase (P9WGY9 whole entry, the tested form may be a part): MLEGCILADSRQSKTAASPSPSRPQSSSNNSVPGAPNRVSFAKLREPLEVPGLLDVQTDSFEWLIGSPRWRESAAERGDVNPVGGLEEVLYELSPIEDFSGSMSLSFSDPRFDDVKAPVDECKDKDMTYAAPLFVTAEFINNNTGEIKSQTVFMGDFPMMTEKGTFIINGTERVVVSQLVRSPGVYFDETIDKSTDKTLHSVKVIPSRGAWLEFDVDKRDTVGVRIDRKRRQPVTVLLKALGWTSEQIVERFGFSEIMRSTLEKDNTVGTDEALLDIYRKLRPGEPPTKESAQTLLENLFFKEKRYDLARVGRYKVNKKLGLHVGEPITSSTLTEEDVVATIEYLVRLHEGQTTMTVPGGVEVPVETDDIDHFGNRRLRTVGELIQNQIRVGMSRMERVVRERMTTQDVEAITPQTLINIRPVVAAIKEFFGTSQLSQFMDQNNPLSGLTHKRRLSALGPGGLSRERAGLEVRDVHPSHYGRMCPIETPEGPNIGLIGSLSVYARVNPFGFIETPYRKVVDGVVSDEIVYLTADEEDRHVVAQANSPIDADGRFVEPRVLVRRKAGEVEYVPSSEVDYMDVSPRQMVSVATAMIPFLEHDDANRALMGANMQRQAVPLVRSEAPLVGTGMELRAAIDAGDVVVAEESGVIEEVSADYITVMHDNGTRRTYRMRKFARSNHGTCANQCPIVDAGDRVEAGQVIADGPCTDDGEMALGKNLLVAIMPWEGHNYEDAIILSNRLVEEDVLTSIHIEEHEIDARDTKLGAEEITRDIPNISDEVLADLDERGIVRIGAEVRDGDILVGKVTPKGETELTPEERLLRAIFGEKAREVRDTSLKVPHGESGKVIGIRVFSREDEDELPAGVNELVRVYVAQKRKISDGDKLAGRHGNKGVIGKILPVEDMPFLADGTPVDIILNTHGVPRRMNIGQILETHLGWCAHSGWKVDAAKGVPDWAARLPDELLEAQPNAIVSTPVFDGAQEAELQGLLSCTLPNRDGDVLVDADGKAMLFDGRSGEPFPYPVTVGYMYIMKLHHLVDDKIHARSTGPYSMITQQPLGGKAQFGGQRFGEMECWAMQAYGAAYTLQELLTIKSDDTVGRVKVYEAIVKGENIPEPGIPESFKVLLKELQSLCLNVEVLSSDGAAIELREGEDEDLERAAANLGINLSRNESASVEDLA
Chain of Mycobacterium tuberculosis RNA polymerase (P9WGI1 whole entry, further chain, the tested form may be a part): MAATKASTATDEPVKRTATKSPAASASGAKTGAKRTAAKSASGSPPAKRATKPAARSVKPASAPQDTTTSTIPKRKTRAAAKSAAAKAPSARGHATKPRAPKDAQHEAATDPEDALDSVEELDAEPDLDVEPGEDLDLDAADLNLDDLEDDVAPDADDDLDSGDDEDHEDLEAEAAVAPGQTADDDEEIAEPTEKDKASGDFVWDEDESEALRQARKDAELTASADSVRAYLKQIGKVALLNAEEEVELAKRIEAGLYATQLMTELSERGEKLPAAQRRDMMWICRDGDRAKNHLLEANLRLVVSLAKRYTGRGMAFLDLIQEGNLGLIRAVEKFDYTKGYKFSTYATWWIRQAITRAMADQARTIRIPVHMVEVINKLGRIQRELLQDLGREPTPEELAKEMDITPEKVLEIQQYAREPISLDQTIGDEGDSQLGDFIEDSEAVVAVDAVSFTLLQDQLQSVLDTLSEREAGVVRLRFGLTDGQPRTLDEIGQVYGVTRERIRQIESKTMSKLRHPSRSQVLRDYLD
Chain of Mycobacterium tuberculosis RNA polymerase (P9WGY7 whole entry, the tested form may be a part): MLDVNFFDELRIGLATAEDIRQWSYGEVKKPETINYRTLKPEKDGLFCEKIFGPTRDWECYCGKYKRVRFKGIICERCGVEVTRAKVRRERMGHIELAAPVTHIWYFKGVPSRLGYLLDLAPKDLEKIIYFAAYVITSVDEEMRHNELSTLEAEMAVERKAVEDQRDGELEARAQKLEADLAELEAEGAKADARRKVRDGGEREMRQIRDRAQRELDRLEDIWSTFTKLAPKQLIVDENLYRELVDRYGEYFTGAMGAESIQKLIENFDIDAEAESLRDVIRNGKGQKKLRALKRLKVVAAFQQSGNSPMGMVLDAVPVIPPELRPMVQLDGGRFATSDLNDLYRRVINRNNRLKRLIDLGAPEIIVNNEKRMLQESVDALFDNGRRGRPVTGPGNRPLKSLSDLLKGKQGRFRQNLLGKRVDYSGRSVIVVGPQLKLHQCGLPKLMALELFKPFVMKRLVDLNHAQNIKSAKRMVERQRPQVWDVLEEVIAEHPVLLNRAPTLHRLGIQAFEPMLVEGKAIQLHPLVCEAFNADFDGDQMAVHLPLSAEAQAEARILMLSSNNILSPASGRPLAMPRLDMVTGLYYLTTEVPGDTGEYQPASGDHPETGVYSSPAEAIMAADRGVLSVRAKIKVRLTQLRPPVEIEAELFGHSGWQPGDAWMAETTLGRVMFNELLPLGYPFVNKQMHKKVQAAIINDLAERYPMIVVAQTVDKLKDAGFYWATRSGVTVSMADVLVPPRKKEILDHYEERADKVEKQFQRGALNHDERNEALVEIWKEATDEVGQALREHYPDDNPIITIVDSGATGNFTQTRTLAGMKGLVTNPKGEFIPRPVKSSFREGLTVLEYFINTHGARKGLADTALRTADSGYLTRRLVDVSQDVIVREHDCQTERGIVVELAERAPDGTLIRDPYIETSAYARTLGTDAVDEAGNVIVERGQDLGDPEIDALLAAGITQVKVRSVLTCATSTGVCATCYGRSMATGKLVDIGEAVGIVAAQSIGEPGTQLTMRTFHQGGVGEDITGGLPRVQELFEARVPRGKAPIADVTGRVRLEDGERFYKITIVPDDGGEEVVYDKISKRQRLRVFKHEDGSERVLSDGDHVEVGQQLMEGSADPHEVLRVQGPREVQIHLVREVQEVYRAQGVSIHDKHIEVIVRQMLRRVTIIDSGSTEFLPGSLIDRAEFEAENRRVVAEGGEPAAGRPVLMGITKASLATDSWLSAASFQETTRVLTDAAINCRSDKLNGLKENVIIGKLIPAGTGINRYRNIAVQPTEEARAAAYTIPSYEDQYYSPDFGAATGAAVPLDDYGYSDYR

| SMILES | MIC [1] | MIC [2] | MIC [3, 7] | cross-resistance of rifampin-resistant mutants to the compound [4] | MCC mammalian cells Vero E6 ATCC CRL1586 [5] | IC50 [6, 8] | IC50 [6, 9] | MIC [3, 10] |
| --- | --- | --- | --- | --- | --- | --- | --- | --- |
| Cc1ccccc1NC(=O)C(Cc1ccccc1)NC(=O)c1cccc2[nH]ccc12 (stereo not shown) [II-39] | 12.5 µg/mL (≈ 31.4 µM) | 12.5 µg/mL (≈ 31.4 µM) | 0.39 µg/mL (≈ 0.981 µM) | No rifampin-resistant mutant was found to exhibit cross-resistance | 36 µg/mL | – | – | – |
| O=C(NC(Cc1ccccc1)C(=O)Nc1cccc2cccnc12)c1ccccc1 (stereo not shown) [IX-2, N-(1-oxo-3-phenyl-1-(quinolin-8-ylamino)propan-2-yl)benzamide] | > 39 µg/mL | > 50 µg/mL | 3.12 µg/mL (≈ 7.9 µM) | No rifampin-resistant mutant was found to exhibit cross-resistance | >39 µg/mL | – | – | – |
| O=C(NC(Cc1ccccc1)C(=O)Nc1cccc2cnccc12)c1ccccc1 (stereo not shown) [IX-3, N-(1-(isoquinolin-5-ylamino)-1-oxo-3-phenylpropan-2-yl)benzamide] | 3.13 µg/mL (≈ 7.91 µM) | 6.25 µg/mL (≈ 15.8 µM) | 0.195 µg/mL (≈ 0.493 µM) | No rifampin-resistant mutant was found to exhibit cross-resistance | >40 µg/mL | – | – | – |
| O=C(NC(Cc1ccccc1)C(=O)Nc1cccc2ncccc12)c1ccccc1 (stereo not shown) [IX-4, N-(1-oxo-3-phenyl-1-(quinolin-5-ylamino)propan-2-yl)benzamide] | 12.5 µg/mL (≈ 31.6 µM) | > 50 µg/mL | 0.78 µg/mL (≈ 1.97 µM) | No rifampin-resistant mutant was found to exhibit cross-resistance | >40 µg/mL | – | – | – |
| O=C(NC(Cc1ccccc1)C(=O)Nc1cccc2c1OCCO2)c1ccccc1 (stereo not shown) [IX-5, N-(1-((2,3-dihydrobenzo[b][1,4]dioxin-5-yl)amino)-1-oxo-3-phenylpropan-2-yl)benzamide] | 6.25 µg/mL (≈ 15.5 µM) | 6.25 µg/mL (≈ 15.5 µM) | 0.39 µg/mL (≈ 0.969 µM) | No rifampin-resistant mutant was found to exhibit cross-resistance | >40 µg/mL | – | – | – |
| O=C(NC(Cc1ccc(O)cc1)C(=O)Nc1cccc2c1CCC2)c1ccccc1 (stereo not shown) [IX-14, N-(1-((2,3-dihydro-1H-inden-4-yl)amino)-3-(4-hydroxyphenyl)-1-oxopropan-2-yl)benzamide] | 6.25 µg/mL (≈ 15.6 µM) | 12.5 µg/mL (≈ 31.2 µM) | 0.39 µg/mL (≈ 0.974 µM) | No rifampin-resistant mutant was found to exhibit cross-resistance | >40 µg/mL | – | – | – |
| O=C(NC(Cc1ccccc1)C(=O)Nc1ccccc1OCF)c1ccccc1 (stereo not shown) [IX-27, N-(1-((2-(fluoromethoxy)phenyl)amino)-1-oxo-3-phenylpropan-2-yl)benzamide] | 1.56 µg/mL (≈ 3.98 µM) | 3.12 µg/mL (≈ 7.96 µM) | 0.195 µg/mL (≈ 0.497 µM) | – | >100 µg/mL | 990 nM | – | – |
| COc1ccc(F)cc1NC(=O)C(Cc1ccc(O)cc1)NC(=O)c1ccccc1F (stereo not shown) [IX-204, 2-fluoro-N-(1-((5-fluoro-2-methoxyphenyl)amino)-3-(4-hydroxy-phenyl)-1-oxopropan-2-yl)benzamide] | 0.78 µg/mL (≈ 1.83 µM) | 1.56 µg/mL (≈ 3.66 µM) | 0.39 µg/mL (≈ 0.915 µM) | – | 50 µg/mL | 390 nM | – | – |
| O=C(NC(Cc1ccccc1)C(=O)Nc1cc(F)ccc1N1CCNCC1)c1ccccc1 (stereo not shown) [IX-245, N-(1-((5-fluoro-2-(piperazin-1-yl)phenyl)amino)-1-oxo-3-phenyl-propan-2-yl)benzamide] | 1.56 µg/mL (≈ 3.49 µM) | 0.78 µg/mL (≈ 1.75 µM) | 0.39 µg/mL (≈ 0.873 µM) | – | 17 µg/mL | 220 nM | – | – |
| O=C(NC(Cc1ccccc1)C(=O)Nc1cc(F)ccc1N1CCNCC1)c1ccccc1Br (stereo not shown) [IX-315, 2-bromo-N-(1-((5-fluoro-2-(piperazin-1-yl)phenyl)amino)-1-oxo-3-phenylpropan-2-yl)benzamide] | 3.12 µg/mL (≈ 5.95 µM) | 1.56 µg/mL (≈ 2.97 µM) | 0.39 µg/mL (≈ 0.742 µM) | – | 12.5 µg/mL | 210 nM | – | – |
| Cc1ccccc1N[C@@H](Cc1ccccc1)C(=O)Nc1ccccc1 [Nα-(2-methylphenyl)-N-phenyl-phenylalaninamide] | – | – | – | – | – | – | ≥ 100 nM | ≥ 0.3 µg/mL |
| O=C(Nc1ccccc1F)[C@H](Cc1ccccc1)Nc1ccccc1 [Nα-phenyl-N-(2-fluorophenyl)-phenylalaninamide] | – | – | – | – | – | – | ≥ 100 nM | ≥ 0.3 µg/mL |
| O=C(Nc1ccncc1)[C@H](Cc1ccccc1)Nc1ccccc1 [Nα-phenyl-N-(4-pyridyl)-phenylalaninamide] | – | – | – | – | – | – | ≥ 100 nM | ≥ 0.3 µg/mL |
| O=C(Nc1ccccc1)[C@H](Cc1ccccc1)Nc1ccccc1 [Nα-phenyl-N-phenyl-phenylalaninamide] | – | – | – | – | – | – | ≥ 100 nM | ≥ 0.3 µg/mL |
